Test results reported in US20260159520A1, “HETEROBIFUNCTIONAL COMPOUNDS AND METHODS OF TREATING DISEASE” (Halda Therapeutics OpCo, Inc., priority 2022, published 2026).

Columns and labels:
Format in all cases: cell-based
[1] = system: T-Rex 293 cell line SC3 cells having increased expression of androgen receptor protein; experiment: Cellular growth inhibition, T-Rex 293 SC3 cells with doxycycline (increased androgen receptor expression); settings: with 10 ng/mL doxycycline (increased androgen receptor), 72 hours, CellTiter-Glo 2.0
Method: (§1) The following types of cells were prepared for this experiment: (i) a T-Rex 293 cell line having increased expression of androgen receptor protein due to exposure to doxycycline and (ii) a T-Rex 293 cell line lacking increased expression of androgen receptor protein. Ability of the test compounds to inhibit proliferation of the foregoing cell types was evaluated according to the procedures set forth below.
(§2) The doxycycline-inducible androgen receptor protein expressing cell line was established using the following protocol: T-Rex 293 cells were purchased from Invitrogen (Cat #R71007) and transfected using Lipofectamine 2000 with the wild-type androgen receptor protein sequence cloned into the pcDNA4/TO vector. Transfected cells were selected using 400 μg/mL Zeocin (Invitrogen Cat #R25001). Following selection, single clones were raised and maintained in Dulbecco's Modified Eagle Medium (DMEM) supplemented with 10% w/w Tetracycline-free fetal bovine serum (FBS) and 250 μg/mL Zeocin. Clones were analyzed for expression of androgen receptor protein in the presence and absence of 10 ng/mL doxycycline (Sigma Cat #D9891), and a single doxycycline-inducible clone (hereinafter “SC3”) was selected for use in downstream assays.
(§3) The SC3 cells were seeded on poly-D-lysine coated, black clear-bottom 384-well plates at 2500/well, in 25 μL Phenol Red Free Dulbecco's Modified Eagle Medium (DMEM) supplemented with 10% w/w charcoal-dextran treated fetal bovine serum (FBS) and 1% w/w pen-strep, with or without 10 ng/mL doxycycline. Pen-Strep is a commercially available mixture of penicillin G and streptomycin, which is used in mammalian cell culture media to prevent bacterial contamination. Phenol Red Free Dulbecco's Modified Eagle Medium (DMEM) supplemented with 10% w/w charcoal-dextran treated fetal bovine serum (FBS) and 1% w/w pen-strep, with or without 10 ng/mL doxycycline is herein referred to as Treatment Medium. Following seeding of cells in the plates, the plates were spun at 300×g for 30 seconds, then equilibrated to room temperature for 30 minutes, and then deposited in a humidified tissue culture incubator maintained at 37° C. with 5% CO2.
(§4) At 24 hours after seeding of the cells, dilutions of test compound were prepared in DMSO and dissolved in Treatment Medium, to achieve a final DMSO concentration of 0.5% w/w, thereby providing the Test Compound Solution. A 25 μL aliquot of the Test Compound Solution was added to cells in the well plates. An equal volume of a solution containing DMSO and Treatment Medium was used as a negative control. Following treatment of cells with Test Compound Solution or said equal volume of a solution containing DMSO and Treatment Medium, the plates were spun at 300×g for 30 seconds, and then left in an incubator for 72 hours.
(§5) At the end of the treatment duration, cell viability was quantified with CellTiter-Glo 2.0 reagent (Promega Cat #G9243). For this purpose, plates were equilibrated to room temperature for 30 minutes, and then 25 μL of CellTiter-Glo 2.0 reagent was added to cells in the plate wells. Plates were then agitated on a shaker for two minutes at 500 rpm and subsequently incubated at room temperature for 10 minutes. Following incubation, the plates were spun at 3000×g for 30 seconds, then sealed with an optical adhesive cover, and luminescence readings were measured with an EnVision Plate Reader.
(§6) Data was normalized using zero luminescence for baseline. A four-parameter non-linear regression curve fit was applied to dose-response data in GraphPad Prism data analysis software to determine the half-maximal growth inhibitory concentration (GI50) for each test compound.

[2] = system: T-Rex 293 cell line SC3 cells lacking increased expression of androgen receptor protein; experiment: Cellular growth inhibition, T-Rex 293 SC3 cells without doxycycline; settings: not exposed to doxycycline, 72 hours, CellTiter-Glo 2.0
Method: as §1, §2, §3, §4, §5, §6

T47D cells = experiment: Cellular growth inhibition assay for T47D cells; settings: Homo sapiens, 72 hours, CellTiter-Glo 2.0
Method: (§7) T47D cells were purchased from American Type Cell Culture (ATCC Cat #HTB-133) and then seeded on poly-D-lysine coated, black clear-bottom 384-well plates at 3000/well in 25 μL Dulbecco's Modified Eagle Medium (DMEM) supplemented with 10% w/w Fetal bovine serum (FBS), 0.2 units/mL recombinant human insulin (Gibco Cat #12585014), and 1% w/w Pen-Strep. Pen-Strep is a commercially available mixture of penicillin G and streptomycin, which is used in mammalian cell culture media to prevent bacterial contamination. Dulbecco's Modified Eagle Medium (DMEM) supplemented with 10% w/w fetal bovine serum (FBS), 0.2 units/mL recombinant human insulin, and 1% w/w Pen-Strep is herein referred to as Treatment Medium. Following seeding of cells in the plates, the plates were spun at 300×g for 30 seconds, then equilibrated to room temperature for 30 minutes, and then deposited in a humidified tissue culture incubator maintained at 37° C. with 5% CO2.
as §4
as §5, with “Reader (Perkin Elmer).” for “Reader.”
as §6

VCaP cells = experiment: Cellular growth inhibition assay for VCaP cells; settings: Homo sapiens, 72 hours, CellTiter-Glo 2.0
Method: as §7, with “VCaP” for “T47D”, “#CRL2876)” for “#HTB-133)”, “5000/well” for “3000/well”, “(FBS)” for “(FBS), 0.2 units/mL recombinant human insulin (Gibco Cat #12585014),”, “(FBS)” for “(FBS), 0.2 units/mL recombinant human insulin,”
as §4
as §5, with “Reader. Data was normalized using zero luminescence for baseline.” for “Reader.”
A four-parameter non-linear regression curve fit was applied to dose-response data in GraphPad Prism data analysis software to determine the half-maximal growth inhibitory concentration (GI50) for each test compound.

Compound	GI50 [1] [nM]	GI50 [2] [nM]	GI50 (T47D cells) [nM]	GI50 (VCaP cells) [nM]
CN(CCNS(=O)(=O)c1ccc(Nc2ncc(Br)c(Nc3cccc(F)c3C(N)=O)n2)cc1)c1ncc(C(=O)N[C@H]2C(C)(C)[C@H](Oc3ccc(C#N)c(Cl)c3)C2(C)C)cn1 [Compound I-18, 2-((2-((4-((5-bromo-4-((2-carbamoyl-3-fluorophenyl)amino)pyrimidin-2-yl)amino)phenyl)sulfonamido)ethyl)(methyl)amino)-N-((1r,3r)-3-(3-chloro-4-cyanophenoxy)-2,2,4,4-tetramethylcyclobutyl)pyrimidine-5-carboxamide]	100 to 1000	100 to 1000	< 500	
CN(CCOCCOCCNS(=O)(=O)c1ccc(Nc2ncc(Br)c(Nc3cccc(F)c3C(N)=O)n2)cc1)c1ncc(C(=O)N[C@H]2C(C)(C)[C@H](Oc3ccc(C#N)c(Cl)c3)C2(C)C)cn1 [Compound I-19]	> 3500	> 3500	< 500	
CCc1cnn2c(NCc3ccc(OCCOCCCCCOC4CCN(c5ncc(C(=O)N[C@H]6C(C)(C)[C@H](Oc7ccc(C#N)c(Cl)c7)C6(C)C)cn5)CC4)nc3)cc(N3CCCC[C@H]3CCO)nc12 [Compound I-40]	< 100	> 3500		> 3500
CCc1cnn2c(NCc3ccc(OCCN4CCN(CC5CCN(c6ncc(C(=O)N[C@H]7C(C)(C)[C@H](Oc8ccc(C#N)c(Cl)c8)C7(C)C)cn6)CC5)CC4)nc3)cc(N3CCCCC3)nc12 [Compound I-48]	100 to 1000	> 3500	1500 to 3000	> 3500
CCc1cnn2c(NCc3ccc(OCCCN4CCN(CC5CCN(c6ncc(C(=O)N[C@H]7C(C)(C)[C@H](Oc8ccc(C#N)c(Cl)c8)C7(C)C)cn6)CC5)CC4)nc3)cc(-c3ccccc3)nc12 [Compound I-49]	100 to 1000	> 3500	1500 to 3000	> 3500
CCc1cnn2c(NCc3ccc(OCCCN4CCN(CC5CCN(c6ncc(C(=O)N[C@H]7C(C)(C)[C@H](Oc8ccc(C#N)c(Cl)c8)C7(C)C)cn6)CC5)CC4)nc3)cc(N3CCCCC3)nc12 [Compound I-50, N-((1 r,3r)-3-(3-chloro-4-cyanophenoxy)-2,2,4,4-tetramethylcyclobutyl)-2-(4-((4-(3-((5-(((3-ethyl-5-(piperidin-1-yl)pyrazolo[1,5-a]pyrimidin-7-yl)amino)methyl)pyridin-2-yl)oxy)propyl)piperazin-1-yl)methyl)piperidin-1-yl)pyrimidine-5-carboxamide]	100 to 1000	> 3500	> 3000	> 3500
CCc1cnn2c(NCc3ccc(OCCC4CCN(CC5CCN(c6ncc(C(=O)N[C@H]7C(C)(C)[C@H](Oc8ccc(C#N)c(Cl)c8)C7(C)C)cn6)CC5)CC4)nc3)cc(N3CCCC[C@H]3CCO)nc12 [Compound I-52]	< 100	100 to 1000	< 500	< 100
CCc1cnn2c(NCc3ccc(OCCCN4CCN(CC5CCN(c6cnc(C(=O)N[C@H]7C(C)(C)[C@H](Oc8ccc(C#N)c(Cl)c8)C7(C)C)cn6)CC5)CC4)nc3)cc(N3CCCC[C@@H]3CCO)nc12 [Compound I-56, N-((1r,3r)-3-(3-chloro-4-cyanophenoxy)-2,2,4,4-tetramethylcyclobutyl)-5-(4-((4-(3-((5-(((3-ethyl-5-((R)-2-(2-hydroxyethyl)piperidin-1-yl)pyrazolo[1,5-a]pyrimidin-7-yl)amino)methyl)pyridin-2-yl)oxy)propyl)piperazin-1-yl)methyl)piperidin-1-yl)pyrazine-2-carboxamide]	100 to 1000	100 to 1000		100 to 1000
CCc1cnn2c(NCc3ccc(OCCCN4CCN(CC5CCN(c6ccc(C(=O)N[C@H]7C(C)(C)[C@H](Oc8ccc(C#N)c(Cl)c8)C7(C)C)nc6)CC5)CC4)nc3)cc(N3CCCC[C@@H]3CCO)nc12 [Compound I-57, N-((1r,3r)-3-(3-chloro-4-cyanophenoxy)-2,2,4,4-tetramethylcyclobutyl)-5-(4-((4-(3-((5-(((3-ethyl-5-((R)-2-(2-hydroxyethyl)piperidin-1-yl)pyrazolo[1,5-a]pyrimidin-7-yl)amino)methyl)pyridin-2-yl)oxy)propyl)piperazin-1-yl)methyl)piperidin-1-yl)picolinamide]	100 to 1000	100 to 1000		100 to 1000
CCc1cnn2c(NCc3ccc(N4CC(N5CCC(N6CCN(c7ncc(C(=O)N[C@H]8C(C)(C)[C@H](Oc9ccc(C#N)c(Cl)c9)C8(C)C)cn7)CC6)CC5)C4)nc3)cc(N3CCCC[C@H]3CCO)nc12 [Compound I-64]	< 100	< 100	< 500	< 100
CCc1cnn2c(NCc3ccc(N4CC(N5CCN(C6CCN(c7ncc(C(=O)N[C@H]8C(C)(C)[C@H](Oc9ccc(C#N)c(Cl)c9)C8(C)C)cn7)CC6)CC5)C4)nc3)cc(N3CCCC[C@H]3CCO)nc12 [Compound I-65]	< 100	< 100	< 500	< 100
CCc1cnn2c(NCc3ccc(N4CC(N5CCC(C6CCN(c7ncc(C(=O)N[C@H]8C(C)(C)[C@H](Oc9ccc(C#N)c(Cl)c9)C8(C)C)cn7)CC6)CC5)C4)nc3)cc(N3CCCC[C@H]3CCO)nc12 [Compound I-66]	< 100	> 3500	1500 to 3000	100 to 1000
CCc1cnn2c(NCc3ccc(N(C)CCCN4CCN(C5CN(c6ncc(C(=O)N[C@H]7C(C)(C)[C@H](Oc8ccc(C#N)c(Cl)c8)C7(C)C)cn6)C5)CC4)nc3)cc(N3CCCC[C@H]3CCO)nc12 [Compound I-81]			< 500	
